In patent publication US11980596B2 (priority 2017, dated 2024):

Legend:
[1] = tested on: elderly subjects with TRD; assay type: in vivo, human; details: each dosing day
Description: The Modified Observer's Assessment of Alertness/Sedation (MOAA/S) was used to measure treatment-emergent sedation with correlation to levels of sedation defined by the American Society of Anesthesiologists (ASA) continuum. The MOAA/S scores range from 0 (No response to painful stimulus; corresponds to ASA continuum for general anesthesia) to 5 (Readily responds to name spoken in normal tone [awake]; corresponds to ASA continuum for minimal sedation). The proportion of subjects with sedation was <4% for the esketamine group for each dosing day.

[2] = tested on: subjects with MDD at imminent risk for suicide; assay: MADRS suicide item ([…]2001); assay type: in vivo, human; details: 84 mg; Day 1: 4-hours postdose, Day 2 (DB), End Point (DB); two-sided level 0.20
Description: • a. Changes from baseline to Day 2 and Day 25 for the MADRS total score • b. Changes from baseline to Day 1 4-hours postdose, Day 2 and Day 25 for the MADRS Suicide Item • c. Changes from baseline to Day 1 4-hours postdose, Day 2, and Day 25 for the clinical global judgment of suicide risk from the Suicide Ideation and Behavior Assessment Tool (SIBAT) • d. Sustained response (Onset of Clinical Response) defined as at least 50% reduction from baseline in MADRS total score with onset on Day 1 that is maintained through the end of the double-blind phase (Day 25) • e. Changes from baseline to Day 1 4-hours postdose, Day 2, and Day 25 for the Beck Scale for Suicidal Ideation (BSS) • f. Changes from baseline to Day 1 4-hours postdose and Day 25 for the Beck Hopelessness Scale
Results of the change from baseline over time for the suicide item from the MADRS assessment can be found in Attachment 1.

[3] = tested on: subjects with MDD at imminent risk for suicide; assay: SIBAT clinical global judgment of suicide risk ([…]2001); assay type: in vivo, human
Description: The clinical global judgment of suicide risk (Module 8) summarizes clinician overall judgment of suicide risk as derived from information gathered from the full SIBAT tool. It operates like numerous other CGI-severity scales that have been used in other psychiatric studies. Change in the clinical global judgment of suicide risk is designed to directly identify clinical meaningful changes in suicidal ideation and to permit classification of suicide risk.
The analysis of the change in SIBAT score was based on an ANCOVA model on ranks of change in SIBAT with treatment, antidepressant therapy, and analysis center as factors, and baseline value (unranked) as a covariate. There was a significant difference (two-sided […]) between the two treatment groups when comparing the mean rank of change from baseline at Day 1: 4-hours postdose in favor of esketamine 84 mg See, Table 58. See, FIG. 39. […] This difference was not evident at the Day 25 DB endpoint. See, FIG. 40, which is based on LOCF data and analyzed using Cochran-Mantel-Haenszel test controlling for analysis center and antidepressant therapy.

[4] = tested on: patients with treatment-resistant depression (TRD); assay: CGI-S (Example 7); assay type: in vivo, human
Experimental: Overall illness severity was assessed on the Clinical Global Impression of Severity (CGI-S) scale (Guy, “ECDEU Assessment Manual for Psychopharmacology—Revised (DHEW Publ No ADM 76-338)”, Rockville, Md.: U.S. Department of Health, Education, and Welfare, Public Health Service, Alcohol, Drug Abuse, and Mental Health Administration, NIMH Psychopharmacology Research Branch, Division of Extramural Research Programs; 1976, pp 218-222). Participants assessed their severity of anxiety on the Generalized Anxiety Disorder 7-item (GADS-7) Scale (See, Tables 157 and 158). See, Spitzer, “A brief measure for assessing generalized anxiety disorder—the GAD-7”, Arch. Intern. Med., 2006, 166(10): 1092-1097.

[5] = tested on: patients with TRD; assay: Sedation by MOAA/s in SPRAVATO clinical trials (label); assay type: in vivo, human; details: after dosing
Experimental: In clinical trials, 49% to 61% of SPRAVATO-treated patients developed sedation based on the Modified Observer's Alertness/Sedation scale (MOAA/s) [see Adverse Reactions (6.1)], and 0.3% of SPRAVATO-treated patients experienced loss of consciousness (MOAA/s score of 0).
Sedation was evaluated by adverse event reports and using the Modified Observer's Alertness/Sedation scale (MOAA/s). In the MOAA/s scale, 5 means “responds readily to name spoken in normal tone” and 0 means “no response after painful trapezius squeeze.” Any decrease in MOAA/s from pre-dose is considered to indicate presence of sedation, and such a decrease occurred in a higher number of patients on esketamine than placebo during the short-term trials (Table 4).

[6] = tested on: patients with TRD; assay: Dissociation by CADSS in SPRAVATO clinical trials (label); assay type: in vivo, human
Description: The most common psychological effects of SPRAVATO were dissociative or perceptual changes (including distortion of time, space and illusions), derealization and depersonalization (61% to 75% of SPRAVATO-treated patients developed dissociative or perceptual changes based on the Clinician Administered Dissociative Symptoms Scale) [see Adverse Reactions (6.1)]. Given its potential to induce dissociative effects, carefully assess patients with psychosis before administering SPRAVATO; treatment should be initiated only if the benefit outweighs the risk.
SPRAVATO can cause dissociative symptoms (including derealization and depersonalization) and perceptual changes (including distortion of time and space, and illusions). In clinical trials, dissociation was transient and occurred on the day of dosing. Dissociation was evaluated by adverse event reports and the Clinician-Administered Dissociative States Scale (CADSS) questionnaire. A CADSS total score of more than 4 indicates presence of dissociative symptoms, and such an increase to a score of 4 or more occurred in a higher number of patients on esketamine compared to placebo during the short-term trials (see Table 5).

[7] = tested on: rat liver cells; assay: In vivo Comet assay; details: intravenously-administered
[8] = tested on: CYPs and UGTs
[9] = tested on: P-gp, BCRP, OATP1B1, OATP1B3, MATE1, MATE2-K, OCT2, OAT1, OAT3; assay: Transporter substrate and inhibition studies; details: not told
[10] = Period 1, esketamine 28 mg intranasal
[11] = Period 1, esketamine 56 mg intranasal
[12] = Period 1, esketamine 84 mg intranasal
[13] = Period 2, esketamine 28 mg intranasal
[14] = Period 2, esketamine 56 mg intranasal
[15] = Period 2, esketamine 84 mg intranasal

Compound: CN[C@]1(c2ccccc2Cl)CCCCC1=O [esketamine, (S)-2-(2-chlorophenyl)-2-(methylamino)cyclohexanone]
- Proportion of subjects with sedation (post dose MOAA/S score of ≤3) [1]: < 4%
- MADRS suicide item: change from baseline vs placebo [2]: Statistically significant differences favoring esketamine
- SIBAT Clinical Global Judgment of Suicide Risk: change vs placebo ([3]; 84 mg, Day 1: 4-hours postdose and Day 2): statistically superior
- SIBAT Clinical Global Judgment of Suicide Risk, Day 1 (DB): 4H, Median (Range) ([3]; esketamine 84 mg, LOCF, ITT, N = 33): 5.0 (0; 6)
- SIBAT Clinical Global Judgment of Suicide Risk, Change from Baseline to Day 1 (DB): 4H, Median (Range) ([3]; esketamine 84 mg, LOCF, ITT, N = 33, negative change = improvement): 0.0 (−6; 1)
- SIBAT Clinical Global Judgment of Suicide Risk, Day 2 (DB), Median (Range) ([3]; esketamine 84 mg, LOCF, ITT, N = 35): 5.0 (0; 6)
- SIBAT Clinical Global Judgment of Suicide Risk, Change from Baseline to Day 2 (DB), Median (Range) ([3]; esketamine 84 mg, LOCF, ITT, N = 35, negative change = improvement): −1.0 (−6; 1)
- SIBAT Clinical Global Judgment of Suicide Risk, Baseline (DB), Median (Range) ([3]; esketamine 84 mg, predose Day 1, ITT, N = 35): 6.0 (5; 6)
- CGI-S Median (Range) at end point [4, 10]: 4.0 (3, 5)
- CGI-S Median Change (Range) [4, 10]: −1.0 (−2, 1)
- CGI-S Median (Range) at end point [4, 11]: 4.0 (1, 5)
- CGI-S Median Change (Range) [4, 11]: −1.0 (−3, 0)
- CGI-S Median (Range) at end point [4, 12]: 4.0 (1, 6)
- CGI-S Median Change (Range) [4, 12]: −0.5 (−4, 0)
- CGI-S Median (Range) at end point [4, 13]: 4.0 (3, 5)
- CGI-S Median Change (Range) [4, 13]: −1.0 (−1, 0)
- CGI-S Median (Range) at end point [4, 14]: 5.0 (4, 6)
- CGI-S Median Change (Range) [4, 14]: −1.0 (−2, 0)
- CGI-S Median (Range) at end point [4, 15]: 4.0 (3, 5)
- CGI-S Median Change (Range) [4, 15]: −1.0 (−2, 0)
- Sedative effects typically resolved by [5]: ≤ 1.5 h
- Incidence of dissociation reported as severe in intensity ([6]; across studies): less than 4%
- Dissociation symptoms typically resolved by ([6]; after dosing): ≤ 1.5 h
- Genotoxicity [7]: devoid of genotoxic properties
- Inhibition potential against CYPs and UGTs [8]: did not show inhibition potential
- Inhibition of P-gp, BCRP, OATP1B1, OATP1B3, MATE1, MATE2-K, OCT2, OAT1 or OAT3 [9]: do not inhibit
- Substrate of P-gp, BCRP, OATP1B1 or OATP1B3 [9]: not a substrate
